Target: T1, Rat Striatal 5-HT6 Receptors (Rattus norvegicus, UniProt P31388)
T1 construct: Striatal tissue from adult rats (Sprague-Dawley, 320-370 g, B & K Sweden) were dissected out, weighed and homogenized; from tissue; host or cells: rat striatum (Sprague-Dawley) membranes
Experiment: [125I]SB258585 binding to rat striatal 5-HT6 receptors
Conditions: competition with 0.5-1 nM [125I]SB258585, rat striatal membranes
Experimental: Method for [125I]SB258585 Binding to Rat Striatal 5-HT6 Receptors
[^125I]SB258585 (1) with specific radioactivity 2000 Ci/mmol was purchased from Amersham Biosciences Europe GmbH, Freiburg, Germany. Other chemicals were is purchased from commercial sources and were of analytical grade.
Striatal tissue from adult rats (Sprague-Dawley, 320-370 g, B & K Sweden) were dissected out, weighed and homogenized in buffer containing 50 mM Tris-HCl, 4 mM MgCl2, 1 mM EDTA, 10 μM pargyline and protease inhibitor (Complete, Roche Diagnostics) pH 7.4 using an Ultra-Turrax T8 (IKA Labortechnik, Germany). The tissue homogenate was centrifuged at 48 000×g for 10 min and the pellet was resuspended and recentrifuged as above. […]
Saturation binding studies were carried out in duplicate with 1-3 mg w.w. per tube in 0.5 ml buffer (50 mM Tris, 4 mM MgCl2, 100 mM NaCl, 1 mM EDTA, 5 mM ascorbate and 10 μM pargyline at pH 7.4), 0.2 nM [^125I]SB258585 and unlabelled SB258585 to give a final concentration range of 0.23-20 nM (12 conc.). Non-specific binding was determined in the presence of 10 μM methiothepin. […] The radioactivity was determined in a Packard Tri-Carb 2900TR liquid scintillation counter: Data were analyzed by non-linear regression analyses using PRISM 4.00 (GraphPad Software Inc., San Diego, Calif.). […]

T1 sequence (P31388 whole entry): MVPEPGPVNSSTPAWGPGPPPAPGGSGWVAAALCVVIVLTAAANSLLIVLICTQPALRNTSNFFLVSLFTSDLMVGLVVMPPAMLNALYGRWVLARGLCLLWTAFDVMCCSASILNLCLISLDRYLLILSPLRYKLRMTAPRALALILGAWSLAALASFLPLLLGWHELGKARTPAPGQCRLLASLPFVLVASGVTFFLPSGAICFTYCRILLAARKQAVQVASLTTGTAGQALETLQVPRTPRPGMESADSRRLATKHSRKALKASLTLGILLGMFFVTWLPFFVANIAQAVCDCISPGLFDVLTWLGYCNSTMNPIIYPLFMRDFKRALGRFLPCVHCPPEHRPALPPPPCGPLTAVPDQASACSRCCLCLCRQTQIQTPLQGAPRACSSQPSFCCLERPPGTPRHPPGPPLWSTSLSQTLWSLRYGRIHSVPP

- Ki: 82 ± 28 nM
SMILES: O=S(=O)(Nc1cccc(Cl)c1)c1ccc2c(c1)CNCCO2 [Example 3, N-(3-Chlorophenyl)-2,3,4,5-tetrahydro-1,4-benzoxazepine-7-sulfonamide]
